For 26 compounds, GI50 results are on record in patent publication US12215100B2, “Anticancer compounds” (Pharma Mar, S.A., priority 2018, dated 2025).

Holding throughout (assay type): cell-based, human
Experiment [1] has as its system HT29. The experiment in a line: SRB colorimetric cytotoxicity assay, HT29. The note with it: Homo sapiens, colorectal adenocarcinoma. From the text:
(§1) The aim of this assay is to evaluate the in vitro cytostatic (ability to delay or arrest tumor cell growth) or cytotoxic (ability to kill tumor cells) activity of the samples being tested.
(§2) A colorimetric assay, using sulforhodamine B (SRB) reaction has been adapted to provide a quantitative measurement of cell growth and viability (following the technique described by V. Vichai and K. Kirtikara (2006) Nature Protoc. 1, 1112-1116.)
(§3) This form of assay employs 96-well cell culture microplates. All the cell lines used in this study were obtained from the American Type Culture Collection (ATCC), unless otherwise indicated, and derive from different types of human cancer.
(§4) Cells were maintained in Dulbecco's Modified Eagle Medium (DMEM) (for A549, HT-29 and MDA-MB-231) or RPMI (for PSN-1) supplemented with 10% Fetal Bovine Serum (FBS), 2 mM L-glutamine, 100 U/mL penicillin and 100 U/mL streptomycin at 37° C., 5% CO2 and 98% humidity. For the experiments, cells were harvested from subconfluent cultures using trypsinization and resuspended in fresh medium before counting and plating.
(§5) Cells were seeded in 96 well microtiter plates, at 5×10^3 cells per well in aliquots of 150 μL, and allowed to attach to the plate surface for 18 hours (overnight) in drug free medium. After that, one control (untreated) plate of each cell line was fixed (as described below) and used for time zero reference value. […] After 72 hours treatment, the antitumor effect was measured by using the SRB methodology: Briefly, cells were washed twice with PBS, fixed for 15 min in 1% glutaraldehyde solution at room temperature, rinsed twice in PBS, and stained in 0.4% SRB solution for 30 min at room temperature. Cells were then rinsed several times with 1% acetic acid solution and air-dried at room temperature. SRB was then extracted in 10 mM trizma base solution and the absorbance measured in an automated spectrophotometric plate reader at 490 nm. Effects on cell growth and survival were estimated by applying the NCI algorithm (Boyd M R and Pauli K D. Drug Dev Res. 1995, 34, 91-104).
(§6) Using the mean±SD of triplicates, a dose-response curve was automatically generated using nonlinear regression analysis to a 4-parameter logistic curve. Three reference parameters were calculated (NCI algorithm) by automatic interpolation: GI50=compound concentration that produces 50% cell growth inhibition, as compared to control cultures; TGI=total cell growth inhibition (cytostatic effect), as compared to control cultures, and LC50=compound concentration that produces 50% net cell killing (cytotoxic effect).

The test system of experiment [2] is A549. The experiment in a line: SRB colorimetric cytotoxicity assay, A549. As to conditions: Homo sapiens, lung carcinoma (NSCLC).
Text: as §1, §2, §3, §4, §5, §6

Experiment [3] concerns PSN-1. The experiment in a line: SRB colorimetric cytotoxicity assay, PSN-1. The note with it: Homo sapiens, pancreatic adenocarcinoma.
Text: as §1, §2, §3, §4, §5, §6

Experiment [4] deals with MDA-MB-231. In words: SRB colorimetric cytotoxicity assay, MDA-MB-231. As to conditions: Homo sapiens, breast adenocarcinoma.
Text: as §1, §2, §3, §4, §5, §6

Setting [5] is: HT-29, 72 h, 72 hours treatment.
[6] abbreviates: MDA-MB-231, 72 h, 72 hours treatment.

Take `CCC[C@@H](NC(=O)[C@]1(C)CSC(C(C)=O)=N1)c1cccc(=O)o1` [Compound 127]: the GI50 (as a rule, the concentration at which growth is held to half of that of the control) is 14 µM in experiment [1] (setting [5]); over 29.7 µM in experiment [2] (A549, 72 h, 72 hours treatment); 18.7 µM in experiment [3] (PSN1, 72 h, 72 hours treatment); 8.62 µM in experiment [4] (setting [6]).
On the same counts, the results for `CCC[C@@H](NC(=O)[C@]1(C)CSC(/C(C)=N/O)=N1)c1cccc(=O)o1` [Compound 128] are 0.105 µM, 0.0911 µM, 0.0882 µM and 0.285 µM.
On the same counts, the results for `CCC[C@@H](NC(=O)[C@@]1(C)CSC(C(C)(OCC)OCC)=N1)c1cc(OC)cc(=O)o1` [Compound 129] are 3.63 µM, 6.13 µM, 5.45 µM and 3.86 µM.
For `C=CCOc1cc([C@@H](CCC)NC(=O)[C@@]2(C)CSC(C(C)(OCC)OCC)=N2)oc(=O)c1` [Compound 130], in that order: 0.206 µM, 0.214 µM, 0.364 µM and 0.364 µM.
Take `CCC[C@@H](NC(=O)[C@@]1(C)CSC(C(C)(OCC)OCC)=N1)c1cc(OCC2CC2)cc(=O)o1` [Compound 131]: the GI50 stood at 0.196 µM in experiment [1] (setting [5]); 0.208 µM in experiment [2] (A549, 72 h, 72 hours treatment); 0.312 µM in experiment [3] (PSN1, 72 h, 72 hours treatment); 0.333 µM in experiment [4] (setting [6]).
On to `C=CCOc1cc([C@@H](CCC)NC(=O)[C@@]2(C)CSC(C(C)=O)=N2)oc(=O)c1` [Compound 133], for which the GI50 in experiment [1] (setting [5]) is 4.59 µM; in experiment [2] (A549, 72 h, 72 hours treatment), 9.43 µM; in experiment [3] (PSN1, 72 h, 72 hours treatment), 5.61 µM; in experiment [4] (setting [6]), 3.82 µM.
On the same counts, the results for `CCC[C@@H](NC(=O)[C@@]1(C)CSC(/C(C)=N/O)=N1)c1cc(OC)cc(=O)o1` [Compound 135] are 1.26 µM, 2.46 µM, 1.26 µM and 2.33 µM.
On the same counts, the results for `C=CCOc1cc([C@@H](CCC)NC(=O)[C@@]2(C)CSC(/C(C)=N/O)=N2)oc(=O)c1` [Compound 136] are 0.0859 µM, 0.0712 µM, 0.081 µM and 0.0785 µM.
For `CCC[C@@H](NC(=O)[C@@]1(C)CSC(/C(C)=N/O)=N1)c1cc(OCC2CC2)cc(=O)o1` [Compound 137], in that order: 0.109 µM, 0.126 µM, 0.145 µM and 0.149 µM.
Consider `COc1cc([C@@H](CCC(F)(F)F)NC(=O)[C@]2(C)CSC(/C(C)=N/O)=N2)oc(=O)c1` [Compound 140], for which the GI50 in experiment [1] (setting [5]) came out at 0.344 µM; in experiment [2] (A549, 72 h, 72 hours treatment), 0.666 µM; in experiment [3] (PSN1, 72 h, 72 hours treatment) it was 0.643 µM; in experiment [4] (setting [6]), 0.459 µM.
Turning to `COc1cc([C@@H](CCC(F)(F)F)NC(=O)[C@]2(C)CSC(/C(C)=N\O)=N2)oc(=O)c1` [Compound 140a], the GI50 was determined as 1.52 µM in experiment [1] (setting [5]); 2.53 µM in experiment [2] (A549, 72 h, 72 hours treatment); 2.76 µM in experiment [3] (PSN1, 72 h, 72 hours treatment); 2.27 µM in experiment [4] (setting [6]).
For `C#CCOc1cc([C@@H](CCC)NC(=O)[C@]2(C)CSC(C(C)=NO)=N2)oc(=O)c1CC#C` [Compound 141], in that order: 0.178 µM, 0.225 µM, 0.338 µM and 0.248 µM.
For `C=CCOc1cc([C@@H](CCC)NC(=O)[C@]2(C)CSC(/C(C)=N/OCCOCCOCCOCC)=N2)oc(=O)c1` [Compound 144], in that order: 0.0652 µM, 0.0722 µM, 0.125 µM and 0.162 µM.
For `CCC[C@@H](NC(=O)[C@]1(C)CSC(/C(C)=N/OCCOCCOCCOCC)=N1)c1cc(OCC2CC2)cc(=O)o1` [Compound 145], in that order: 0.0619 µM, 0.0481 µM, 0.112 µM and 0.122 µM.
`CCC[C@@H](NC(=O)[C@]1(C)CSC(/C(C)=N/OCCCCO[Si](C)(C)C(C)(C)C)=N1)c1cc(OC)cc(=O)o1` [Compound 146]: the GI50 in experiment [1] (HT-29, 72 hours treatment) came out at 1.02 µM; in experiment [2] (A549, 72 hours treatment), 1.94 µM; in experiment [3] (PSN1, 72 hours treatment), 2.11 µM; in experiment [4] (MDA-MB-231, 72 hours treatment) it was 2.82 µM.
As to `CCC[C@@H](NC(=O)[C@]1(C)CSC(/C(C)=N/OCCCCO)=N1)c1cc(OC)cc(=O)o1` [Compound 147], the GI50 in experiment [1] (setting [5]) was found to be 0.137 µM; in experiment [2] (A549, 72 h, 72 hours treatment) it was 0.148 µM; in experiment [3] (PSN1, 72 h, 72 hours treatment) it was 0.243 µM; in experiment [4] (setting [6]) it was 0.287 µM.
Regarding `CCC[C@@H](NC(=O)[C@]1(C)CSC(/C(C)=N/OCCCCO[Si](C)(C)C(C)(C)C)=N1)c1cc(OCC2CC2)cc(=O)o1` [Compound 148], the GI50 in experiment [1] (HT-29, 72 hours treatment) stood at 0.0592 µM; in experiment [2] (A549, 72 hours treatment) it was 0.263 µM; in experiment [3] (PSN1, 72 hours treatment) it was 0.296 µM; in experiment [4] (MDA-MB-231, 72 hours treatment), 0.247 µM.
For `CCC[C@@H](NC(=O)[C@]1(C)CSC(/C(C)=N/OCCCCO)=N1)c1cc(OCC2CC2)cc(=O)o1` [Compound 149], the 50% growth inhibitory concentration (GI50) was 0.00628 µM in experiment [1] (setting [5]); 0.00669 µM in experiment [2] (A549, 72 h, 72 hours treatment); 0.0136 µM in experiment [3] (PSN1, 72 h, 72 hours treatment); 0.00891 µM in experiment [4] (setting [6]).
For `CCC[C@@H](NC(=O)[C@]1(C)CSC(/C(C)=N/OCCCS)=N1)c1cc(OC)cc(=O)o1` [Compound 151], in that order: 0.505 µM, 0.856 µM, 1.21 µM and 1.34 µM.
Take `C=CCOc1cc([C@@H](CCC)NC(=O)[C@]2(C)CSC(/C(C)=N/OCCCNC(=O)OC(C)(C)C)=N2)oc(=O)c1` [Compound 152]: the GI50 in experiment [1] (setting [5]) stood at 0.0195 µM; in experiment [2] (A549, 72 h, 72 hours treatment), 0.0195 µM; in experiment [3] (PSN1, 72 h, 72 hours treatment), 0.0213 µM; in experiment [4] (setting [6]), 0.0266 µM.
`C#CCOc1cc([C@@H](CCC)NC(=O)[C@]2(C)CSC(/C(C)=N/OCCCNC(=O)OC(C)(C)C)=N2)oc(=O)c1` [Compound 155]: the GI50 turned out to be 0.0409 µM in experiment [1] (setting [5]); 0.0374 µM in experiment [2] (A549, 72 h, 72 hours treatment); 0.073 µM in experiment [3] (PSN1, 72 h, 72 hours treatment); 0.0748 µM in experiment [4] (setting [6]).
Turning to `CCC[C@@H](NC(=O)[C@]1(C)CSC(/C(C)=N/OCCCNC(=O)OC(C)(C)C)=N1)c1cc(OCC2CC2)cc(=O)o1` [Compound 157], the GI50 turned out to be 0.00502 µM in experiment [1] (setting [5]); 0.00537 µM in experiment [2] (A549, 72 h, 72 hours treatment); 0.00554 µM in experiment [3] (PSN1, 72 h, 72 hours treatment); 0.00537 µM in experiment [4] (setting [6]).
Turning to `CCC[C@@H](NC(=O)[C@]1(C)CSC(/C(C)=N/OCCC2COC(C)(C)O2)=N1)c1cc(OCC2CC2)cc(=O)o1` (some centres unmarked) [Compound 159], the GI50 stood at 0.0637 µM in experiment [1] (setting [5]); 0.0491 µM in experiment [2] (A549, 72 h, 72 hours treatment); 0.0509 µM in experiment [3] (PSN1, 72 h, 72 hours treatment); 0.0673 µM in experiment [4] (setting [6]).
On the same counts, the results for `C=CCOc1cc([C@@H](CCC)NC(=O)[C@]2(C)CSC(C(C)=NOCCCCN3CCOCC3)=N2)oc(=O)c1` [Compound 161] are 0.00547 µM, 0.00496 µM, 0.00513 µM and 0.00649 µM.
For `C=CCOc1cc([C@@H](CCC)NC(=O)[C@]2(C)CSC(C(C)=NOCCCN3CCN(C)CC3)=N2)oc(=O)c1` [Compound 163], in that order: 0.0156 µM, 0.0161 µM, 0.0164 µM and 0.0166 µM.
On the same counts, the results for `C=CCOc1cc([C@@H](CCC)NC(=O)[C@]2(C)CSC(/C(C)=N/OC(=O)COCCOCCOC)=N2)oc(=O)c1` [Compound 164] are 0.00458 µM, 0.00652 µM, 0.00652 µM and 0.00722 µM.
